Results: the supplement of paper PMC10307832

Assays:
Experiment in all cases: relative viability (nuclei count vs DMSO), 5 days (fraction); higher = more cells survive
EPLC-272H = tested on: EPLC-272H
How it was run: (§1)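 One day after seeding in 1536-well plates, lung cancer cell lines were dosed by pin tool. Dosing was either single-drug or a fixed anchor-drug dose plus five library-drug doses (not always all listed) in √10 steps. After 5 days, nuclei were stained in one fix-and-stain step and counted on 4× images, and relative viability is the nuclei count of treated wells over that of vehicle wells, given as the median of duplicate plates.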

NCI-H2085 = tested on: NCI-H2085
How it was run: as §1

UMC-11 = tested on: UMC-11
How it was run: as §1

SW 1573 = tested on: SW 1573
How it was run: as §1

HARA = tested on: HARA
How it was run: as §1

LOU-NH91 = tested on: LOU-NH91
How it was run: as §1

NCI-H2009 = tested on: NCI-H2009
How it was run: as §1

NCI-H650 = tested on: NCI-H650
How it was run: as §1

SW 900 = tested on: SW 900
How it was run: as §1

LC-2-ad = tested on: LC-2-ad
How it was run: as §1

NCI-H1651 = tested on: NCI-H1651
How it was run: as §1

NCI-H23 = tested on: NCI-H23
How it was run: as §1

H3255 = tested on: H3255
How it was run: as §1

PC-3 [JPC-3] = tested on: PC-3 [JPC-3]
How it was run: as §1

NCI-H838 = tested on: NCI-H838
How it was run: as §1

NCI-H2023 = tested on: NCI-H2023
How it was run: as §1

NCI-H1975 = tested on: NCI-H1975
How it was run: as §1

NCI-H441 = tested on: NCI-H441
How it was run: as §1

NCI-H2087 = tested on: NCI-H2087
How it was run: as §1

NCI-H727 = tested on: NCI-H727
How it was run: as §1

NCI-H2170 = tested on: NCI-H2170
How it was run: as §1

NCI-H2228 = tested on: NCI-H2228
How it was run: as §1

NCI-H1650 = tested on: NCI-H1650
How it was run: as §1

CN1CCN(CCOc2cc(OC3CCOCC3)c3c(Nc4c(Cl)ccc5c4OCO5)ncnc3c2)CC1 [Saracatinib] + CCNC(=O)c1noc(-c2cc(C(C)C)c(O)cc2O)c1-c1ccc(CN2CCOCC2)cc1 [Luminespib] (partner 0.01 µM)
relative viability (EPLC-272H; first compound 0.02 µM): 0.24 | relative viability (EPLC-272H; first compound 0.2 µM): 0.382 | relative viability (EPLC-272H; first compound 0.6325 µM): 0.123 | relative viability (EPLC-272H; first compound 2 µM): 0.197 | relative viability (NCI-H2085; first compound 0.02 µM): 0.411 | relative viability (NCI-H2085; first compound 0.2 µM): 0.347 | relative viability (NCI-H2085; first compound 0.6325 µM): 0.481 | relative viability (NCI-H2085; first compound 2 µM): 0.429 | relative viability (UMC-11; first compound 0.02 µM): 0.96 | relative viability (UMC-11; first compound 0.6325 µM): 0.863 | relative viability (UMC-11; first compound 2 µM): 0.624 | relative viability (SW 1573; first compound 0.02 µM): 0.195 | relative viability (SW 1573; first compound 0.2 µM): 0.217 | relative viability (SW 1573; first compound 0.6325 µM): 0.374 | relative viability (SW 1573; first compound 2 µM): 0.15 | relative viability (HARA; first compound 0.02 µM): 0.686 | relative viability (HARA; first compound 0.2 µM): 0.606 | relative viability (HARA; first compound 0.6325 µM): 0.485 | relative viability (HARA; first compound 2 µM): 0.367 | relative viability (LOU-NH91; first compound 0.02 µM): 0.356 | relative viability (LOU-NH91; first compound 0.2 µM): 0.29 | relative viability (LOU-NH91; first compound 0.6325 µM): 0.385 | relative viability (LOU-NH91; first compound 2 µM): 0.286 | relative viability (NCI-H2009; first compound 0.02 µM): 0.997 | relative viability (NCI-H2009; first compound 0.2 µM): 1.04 | relative viability (NCI-H2009; first compound 0.6325 µM): 0.951 | relative viability (NCI-H2009; first compound 2 µM): 0.913 | relative viability (NCI-H650; first compound 0.02 µM): 0.685 | relative viability (NCI-H650; first compound 0.2 µM): 0.613 | relative viability (NCI-H650; first compound 0.6325 µM): 0.87 | relative viability (NCI-H650; first compound 2 µM): 0.68 | relative viability (SW 900; first compound 0.02 µM): 0.187 | relative viability (SW 900; first compound 0.2 µM): 0.152 | relative viability (SW 900; first compound 0.6325 µM): 0.176 | relative viability (SW 900; first compound 2 µM): 0.151 | relative viability (LC-2-ad; first compound 0.02 µM): 0.985 | relative viability (LC-2-ad; first compound 0.2 µM): 0.912 | relative viability (LC-2-ad; first compound 0.6325 µM): 1.1 | relative viability (LC-2-ad; first compound 2 µM): 0.949 | relative viability (NCI-H1651; first compound 0.02 µM): 0.912 | relative viability (NCI-H1651; first compound 0.2 µM): 0.516 | relative viability (NCI-H1651; first compound 0.6325 µM): 0.965 | relative viability (NCI-H1651; first compound 2 µM): 0.837 | relative viability (NCI-H23; first compound 0.02 µM): 0.247 | relative viability (NCI-H23; first compound 0.2 µM): 0.193 | relative viability (NCI-H23; first compound 0.6325 µM): 0.196 | relative viability (NCI-H23; first compound 2 µM): 0.219 | relative viability (H3255; first compound 0.02 µM): 0.91 | relative viability (H3255; first compound 0.2 µM): 0.914 | relative viability (H3255; first compound 0.6325 µM): 0.745 | relative viability (H3255; first compound 2 µM): 0.477 | relative viability (PC-3 [JPC-3]; first compound 0.02 µM): 0.732 | relative viability (PC-3 [JPC-3]; first compound 0.2 µM): 0.655 | relative viability (PC-3 [JPC-3]; first compound 0.6325 µM): 0.675 | relative viability (PC-3 [JPC-3]; first compound 2 µM): 0.537 | relative viability (NCI-H838; first compound 0.02 µM): 0.264 | relative viability (NCI-H838; first compound 0.2 µM): 0.411 | relative viability (NCI-H838; first compound 0.6325 µM): 0.307 | relative viability (NCI-H838; first compound 2 µM): 0.271 | relative viability (NCI-H2023; first compound 0.02 µM): 0.773 | relative viability (NCI-H2023; first compound 0.6325 µM): 0.735 | relative viability (NCI-H2023; first compound 2 µM): 0.471 | relative viability (NCI-H1975; first compound 0.02 µM): 0.202 | relative viability (NCI-H1975; first compound 0.2 µM): 0.243 | relative viability (NCI-H1975; first compound 0.6325 µM): 0.182 | relative viability (NCI-H1975; first compound 2 µM): 0.188 | relative viability (NCI-H441; first compound 0.02 µM): 0.44 | relative viability (NCI-H441; first compound 0.2 µM): 0.268 | relative viability (NCI-H441; first compound 0.6325 µM): 0.286 | relative viability (NCI-H441; first compound 2 µM): 0.247 | relative viability (NCI-H2087; first compound 0.02 µM): 0.143 | relative viability (NCI-H2087; first compound 0.2 µM): 0.18 | relative viability (NCI-H2087; first compound 0.6325 µM): 0.166 | relative viability (NCI-H2087; first compound 2 µM): 0.253 | relative viability (NCI-H727; first compound 0.02 µM): 0.242 | relative viability (NCI-H727; first compound 0.2 µM): 0.316 | relative viability (NCI-H727; first compound 0.6325 µM): 0.266 | relative viability (NCI-H727; first compound 2 µM): 0.239 | relative viability (NCI-H2170; first compound 0.02 µM): 0.658 | relative viability (NCI-H2170; first compound 0.2 µM): 0.596 | relative viability (NCI-H2170; first compound 0.6325 µM): 0.477 | relative viability (NCI-H2170; first compound 2 µM): 0.337 | relative viability (NCI-H2228; first compound 0.02 µM): 0.157 | relative viability (NCI-H2228; first compound 0.2 µM): 0.167 | relative viability (NCI-H2228; first compound 0.6325 µM): 0.0897 | relative viability (NCI-H2228; first compound 2 µM): 0.116 | relative viability (NCI-H1650; first compound 0.02 µM): 0.188 | relative viability (NCI-H1650; first compound 0.2 µM): 0.187 | relative viability (NCI-H1650; first compound 0.6325 µM): 0.188 | relative viability (NCI-H1650; first compound 2 µM): 0.221
